{
  "source": "patent US11186618B2",
  "about": "“Dendritic-cell-targeted peptide, fusion peptide utilizing said peptide, and vaccine utilizing said fusion peptide” (The Research Foundation for Microbial Diseases of Osaka …, priority 2016, dated 2021)",
  "key": {"[1]": {"tested_on": "NeutrAvidin-specific antibody", "test": "NeutrAvidin-specific antibody titer in sera of mice given biotinylated peptide/NeutrAvidin complex, ELISA (Test Example 12)", "assay_type": "in vivo, mouse", "conditions": "5 μg as NeutrAvidin, base of tail Day 0 and Day 10, serum Day 17, IgG", "source_text": "A biotinylated peptide was synthesized by linking the N-terminus of each of FL4 identified in Test Example 1, a peptide Mut 1 (amino acid sequence: ASYKAIR (SEQ ID NO: 2)) derived from FL4 of which the 1st amino acid residue was substituted by an alanine residue, a peptide Mut 2 (amino acid sequence: VAYKAIR (SEQ ID NO: 3)) derived from FL4 of which the 2nd amino acid residue was substituted by an alanine residue, a peptide Mut 3 (amino acid sequence: VSAKAIR, SEQ ID NO: 43) derived from FL4 of which the 3rd amino acid residue was substituted by an alanine residue, and a peptide Mut 4 (amino acid sequence: VSYKAAR, SEQ ID NO: 44) derived from FL4 of which the […] amino acid residue was substituted by an alanine residue to biotin. Subsequently, a biotinylated peptide/NeutrAvidin complex was produced by mixing each of the obtained biotinylated peptides and NeutrAvidin.\n50 μL of physiological saline containing 5 μg of the complex or NeutrAvidin in terms of NeutrAvidin amount was administered into the base of the tail of each 7-week old C57BL/6 mouse on Day 0 and Day 10, and blood was collected on Day 17. As a control, a test was also carried out in the case where only physiological saline was administered in the same manner Meanwhile, in these tests, five mice in each group were used.\nSera were obtained from the blood collected on Day 17 and NeutrAvidin-specific antibody titer (IgG) in the sera was measured by ELISA. In FIG. 18, “NA” refers to the case of administration of NeutrAvidin, and “NA-FL4” refers to the case of administration of the biotinylated FL4/NeutrAvidin complex. Other peptides are shown in the same display format. Further, in FIG. 18, “cont” refers to the case where physiological saline was administered."}, "[2]": {"tested_on": "mouse-derived dendritic cells (FL-DCs)", "test": "Binding of phage clones to mouse-derived dendritic cells by flow cytometric analysis (Test Example 1)", "assay_type": "cell-based", "conditions": "phage clone displaying the peptide, 1.6×10^10 pfu/mL, 1×10^5 mouse-derived dendritic cells, flow cytometry with antibody against the phage", "procedure": "Meanwhile, in the following test examples, unless otherwise indicated, as mouse-derived dendritic cells, dendritic cells (FL-DCs) that were obtained by culturing murine bone marrow cells in the presence of Flt3-L (final concentration 100 ng/ml) for 1 week to induce differentiation were used. In addition, in the following test examples, FL-DCs were analyzed in some cases separately for Plasmacytoid DCs (pDCs), CD11b positive dendritic cells (CD11b^+ DCs), and CD11b negative dendritic cells (CD11b^− DCs). Among the mouse-derived dendritic cells, pDCs is a group of CD11c positive and B220 positive cells; CD11b^+ DCs is a group of CD11c positive, B220 negative and CD11b positive cells among mouse-derived dendritic cells; CD11b^− DCs is a group of CD11c positive, B220 negative, and CD11b negative cells among mouse-derived dendritic cells.\nEach of phages recovered by three panning operations was monocloned and amplified. 1×10^5 mouse-derived dendritic cells and 1.6×10^10 pfu/mL of each phage clone were mixed, and then the phage was assayed for the binding to dendritic cells by flow cytometric analysis using an antibody against the phage.\nAbout 60 phage clones obtained were subjected to flow cytometric analysis as described above. As a result, 37 clones shown in Table 1 were identified as clones capable of binding to dendritic cells. […]"}, "[3]": {"tested_on": "dendritic cells contained in splenocytes", "test": "Binding of phage clones to dendritic cells contained in splenocytes, flow cytometry (Test Example 6)", "assay_type": "cell-based, mouse", "conditions": "phage clone 1.6×10^10 pfu/mL, 1×10^5 splenocytes", "procedure": "(§1) Specifically, 1×10^5 splenocytes collected from mice and 1.6×10^10 pfu/mL of each phage clone were mixed, and the biotinylated antibody to the phage was added. Further, streptavidin modified with a fluorescent dye was added, and the binding of the phage to splenocytes was evaluated by flow cytometric analysis."}, "[4]": {"tested_on": "CD4^+ T cells contained in splenocytes", "test": "Binding of phage clones to CD4+ T cells contained in splenocytes, flow cytometry (Test Example 6)", "assay_type": "cell-based, mouse", "conditions": "phage clone 1.6×10^10 pfu/mL, 1×10^5 splenocytes", "procedure": "as §1"}, "[5]": {"tested_on": "antigen-specific CD8^+ CTLs", "test": "Tetramer assay on regional lymph nodes, CD8+ CTL inducibility (Test Example 8)", "assay_type": "in vivo, mouse", "conditions": "co-administered with CpG oligodeoxynucleotide, 50 μg in terms of SL8 subcutaneously into the ears Day 0, lymph nodes Day 7", "procedure": "A fusion peptide (SL8-FL4) was prepared by linking the N-terminus of the peptide consisting of the amino acid sequence of FL4 to the C-terminus of SL8 (SIINFEKL; SEQ ID NO: 40) which is an MHC class I epitope peptide in chicken ovalbumin (OVA). Specifically, the amino acid sequence of the fusion peptide is [Amino acid sequence of SL8 (SIINFEKL; SEQ ID NO: 40)]-[VSYKAIR; SEQ ID NO: 1]. The production method of the fusion peptide was the same as that of PspA-FL4 except that a DNA molecule encoding SL8 was used. In addition, each of peptide-fusion bodies (SL8-F8 and SL8-FL4Scr) in which the peptide was fused with SL8 was prepared using each of FL8 and the scramble peptide of FL4 (FL4Scr, amino acid sequence: YRSIVKA, SEQ ID NO: 41) in the same manner. […]\nThe tetramer assay was carried out as follows. Lymphocytes were recovered from the regional lymph nodes, were stained with fluorescently labeled antibodies against CD44 and CD8 and a fluorescently labeled tetramer recognizing the SL8 peptide presented on H-2K^b, then were analyzed using a flow cytometer."}, "EG7 cells": {"tested_on": "EG7 cells", "test": "Tumor size in mice transplanted with EG7 cells (Test Example 9)", "assay_type": "in vivo, mouse", "conditions": "EG7 tumor bearing C57BL/6 mice, 50 μg as SL8 with 50 μg CpG oligodeoxynucleotide subcutaneously into the ears, compared with physiological saline", "procedure": "In this test, whether the regression effect of cancer was observed by SL8-specific CD8^+ CTLs induced by SL8-FL4 was evaluated. In this test, EG7 cells (cancer cells expressing OVA protein in EL4 cells derived from thymoma of C57BL/6 mouse) were used as cancer cells. Specific test methods are as follows.\n1 (10^6 EG7 cells were transplanted into the abdomen of 7-week old C57BL/6 mice to prepare tumor bearing mice. 50 μL of physiological saline containing 50 μg of SL8-FL4 in terms of SL8 amount and 50 μg of CpG oligodeoxynucleotide (K3 type, product name “K3 Et-Free”, product number “CN-65003” manufactured by GeneDesign Inc.) was administered subcutaneously into the ears of mice after EG7 cells were transplanted and the tumor diameter reached about 5 mm (about 5 days after transplantation). Thereafter, tumor size was measured over time while breeding the mice. In addition, similar tests were carried out with regard to the case where 50 μL of physiological saline containing 50 μg SL8 and 50 μg of CpG oligodeoxynucleotide was administered, and the case where only physiological saline was administered (control). Meanwhile, in these tests, five mice in each group were used."}, "PspA-specific antibodies": {"tested_on": "PspA-specific antibodies", "test": "PspA-specific antibody titer in sera of mice given fusion peptide, ELISA (Test Example 2)", "assay_type": "in vivo, mouse", "conditions": "C57BL/6 mice", "procedure": "50 μL of physiological saline containing 1 μg of the fusion peptide or PspA in terms of PspA amount was administered into the base of the tail of each of 7-week old C57BL/6J JmsSlc mice (hereinafter sometimes abbreviated as C57BL/6 mice) on Day 0 and Day 10, and blood was collected on Day 17. As a control, a test was also carried out in the case where only physiological saline was administered in the same manner. Further, a test was also carried out in the case where 50 μL of physiological saline containing 10 μg of CpG oligodeoxynucleotide (K3 type, product name “K3 Et-Free”, product number “CN-65003” manufactured by GeneDesign Inc.) in addition to 1 μg of the fusion peptide or PspA in terms of PspA amount was administered in the same manner Meanwhile, in these tests, five mice in each group were used.\nSera were obtained from the blood collected on Day 17 and PspA-specific antibody titers (IgG, IgG1, and IgG2a) in the sera were measured by ELISA. In FIGS. 3 to 5, “PspA WT” refers to PspA, “PspA-FL4” refers to the fusion peptide in which the N-terminus of a peptide obtained by binding three amino acid sequences of FL4 directly and tandemly was linked to the C-terminus of PspA, “PspA WT+CpG” refers to the case where PspA and CpG oligodeoxynucleotide were administered. In addition, in FIGS. 3 to 5, the same meaning applies to the same display format as “PspA-FL4” and “PspA WT+CpG”. […]"}, "Streptococcus pneumoniae": {"tested_on": "Streptococcus pneumoniae", "test": "Streptococcus pneumoniae challenge of mice immunized with fusion peptide (Test Example 3)", "assay_type": "in vivo", "procedure": "The following test was carried out by using a fusion peptide (FL4-PspA, amino acid sequence: [Amino acid sequence of PspA]-[VSYKAIR; SEQ ID NO: 1]-[VSYKAIR; SEQ ID NO: 1]-[VSYKAIR; SEQ ID NO: 1]) that was prepared in Test Example 2, by linking the N-terminus of a peptide obtained by binding three amino acid sequences of FL4 directly and tandemly to the C-terminus of PspA.\nImmunity induction was carried out by administering 50 μL of physiological saline containing 1 μg of FL4-PspA or PspA in terms of PspA amount into the base of the tail of each of 7-week old C57BL/6 mice on Day 0 and Day 10. Then, intranasal administration (one of the nostrils of 15 μL) of Streptococcus pneumoniae (1.7×10^9 cfu/ml: […]) was performed on Day 18, and the body weight and survival rate of each mouse after Streptococcus pneumoniae administration were determined. In addition, as a control, a test was also carried out in the case where only physiological saline was administered in the same manner without conducting immunization. Further, a test was also carried out in the case where 50 μL of physiological saline containing 10 μg of CpG oligodeoxynucleotide (K3 type, product name “K3 Et-Free”, product number “CN-65003” manufactured by GeneDesign Inc.) in addition to 1 μg of FL4-PspA or PspA in terms of PspA amount was administered in the same manner Meanwhile, in these tests, five mice in each group were used.\nMeanwhile, in FIG. 6, the day on which Streptococcus pneumoniae was administered is shown as Day 0. In addition, the meanings of the abbreviations in FIG. 6 are as indicated in the column of Test Example 2 above."}},
  "data": [
    {"substance": "ASYKAIR (Amino acid sequence of motif sequence) [Mut 1]", "values": [
      {"measurement": "NeutrAvidin-specific antibody production", "setting": "[1]", "value": "excellent production ability"}
    ]},
    {"substance": "GGSKPVR (phage display; displayed peptide) [FL8]", "values": [
      {"measurement": "binding of phage clone to dendritic cells", "setting": "[2]", "value": "binding to bone marrow-derived dendritic cells was confirmed"},
      {"measurement": "binding of phage clone to dendritic cells contained in splenocytes", "setting": "[3]", "value": "bind to all dendritic cells contained in splenocytes"},
      {"measurement": "binding of phage clone to CD4+ T cells contained in splenocytes", "setting": "[4]", "value": "also bound to CD4^+ T cells contained in splenocytes"}
    ]},
    {"substance": "SIINFEKL [SL8, reference compound]", "values": [
      {"measurement": "induction of antigen-specific CD8+ CTLs (tetramer assay, regional lymph nodes)", "setting": "[5]", "value": "could not be induced"},
      {"measurement": "tumor regression effects", "setting": "EG7 cells", "value": "some tumor regression effects"}
    ]},
    {"substance": "VAYKAIR (Amino acid sequence of motif sequence) [Mut 2]", "values": [
      {"measurement": "NeutrAvidin-specific antibody production", "setting": "[1]", "value": "excellent production ability"}
    ]},
    {"substance": "VSAKAIR (Mut3 peptide) [Mut 3]", "values": [
      {"measurement": "NeutrAvidin-specific antibody production", "setting": "[1]", "value": "an excellent antibody-producing ability is recognized unlike the case where each of the amino acid sequences of Mut 3 and Mut 4 is contained"}
    ]},
    {"substance": "VSYKAAR (Mut 4 peptide)", "values": [
      {"measurement": "NeutrAvidin-specific antibody production", "setting": "[1]", "value": "an excellent antibody-producing ability is recognized unlike the case where each of the amino acid sequences of Mut 3 and Mut 4 is contained"}
    ]},
    {"substance": "[Amino acid sequence of PspA]-[VSYKAIR; SEQ ID NO: 1]-[VSYKAIR; SEQ ID NO: 1]-[VSYKAIR; SEQ ID NO: 1] [PspA-FL4]", "values": [
      {"measurement": "production ability of PspA-specific antibodies", "setting": "PspA-specific antibodies; 1 μg in terms of PspA into base of tail Day 0 and Day 10, serum Day 17, ELISA", "value": "remarkably improve"},
      {"measurement": "PspA-specific antibody titer compared with PspA and adjuvant (CpG oligodeoxynucleotide) administered at the same time", "setting": "PspA-specific antibodies; fusion peptide without adjuvant, serum Day 17", "value": "remarkably higher"},
      {"measurement": "body weight after administration of Streptococcus pneumoniae", "setting": "Streptococcus pneumoniae; C57BL/6 mice immunized Day 0 and Day 10 (1 μg as PspA), intranasal 5.1×10^7 cfu/mouse Day 18", "value": "no decrease in body weight was observed"},
      {"measurement": "infection protective ability", "setting": "Streptococcus pneumoniae; C57BL/6 mice, Streptococcus pneumoniae intranasal challenge", "value": "strong infection protective ability"},
      {"measurement": "survival rate", "setting": "Streptococcus pneumoniae; after 10 days from the administration of Streptococcus pneumoniae, C57BL/6 mice", "value": 100, "unit": "%"}
    ]}
  ]
}
